Reference: patent US20200399238A1, “THERAPEUTIC AURONES” (MIDDLE TENNESSEE STATE UNIVERSITY, priority 2016, published 2020)
Like-named read-outs stand apart in the source and are kept apart here.

Experiments:
p65 (NF-κB) = experiment: Indirect immunofluorescence for NF-κB nuclear translocation, THP-1; assay type: cell-based, human; conditions: dose of 10 μM; THP-1, LPS 30 min
From the text: Bay 11-7082 is a compound that inhibits LPS-induced activation of IKKα/β, thereby suppressing downstream IκBα phosphorylation/degradation and p65 nuclear translocation and was used as a positive control (Catalan, Fernandez-Castillejo et al. 2012). Treated cells were fixed, permeabilized, blocked, and stained with p65 (NF-κB) primary antibody, Dylight 488 conjugated secondary antibody, and Hoechst 33342 dye, sequentially. The Hoechst and DyLight fluorophores detect changes in nuclear morphology (blue fluorescence) and NF-κB distribution (green fluorescence), respectively. Nuclear Translocation Bioapplication software on the Arrayscan VTI reader was used for image acquisition and data analysis (Thermo Fisher Scientific, Waltham, Mass., USA). For each well, at least 400 cells were automatically acquired and analyzed. The translocation index was calculated by measuring the average intensity difference of NF-κB between the identified cytoplasmic region and nuclear region.

C. gattii strains = experiment: CLSI micro-dilution MIC, C. gattii strains; assay type: cell-based; conditions: Cryptococcus gattii
Experimental: (§1) The A27-M2 CLSI standard micro-dilution method was used to screen an aurone library (MTSU Department of Chemistry) for inhibition of Cryptococcus neoformans (Cn). Each aurone was screened in triplicate. […] Toxicity assays were conducted on human THP1 macrophages and L6 rat fibroblasts.
(§2) The inhibition of Cn strains and C. gattii strains by Aurone 9051 (also referred to as “Aurone X”) was characterized in different medias (including RPMI 1640 (Standard), RPMI 1640+MOPS, Asparagine media, minimal media, or yeast extract peptone dextrose (YPD) media), against other serotypes and strains, and at different cell concentrations. Synergy of the compounds with current drugs was characterized, and a growth curve experiment was conducted.

[1] = tested on: Cryptococcus neoformans (Cn); experiment: CLSI micro-dilution inhibition / MIC, Cryptococcus neoformans; assay type: cell-based
Experimental: C. neoformans (strain 1199s) was prepared following CLSI guidelines for the organism (CLSI, Reference Method for Broth Dilution Antifungal Susceptibility Testing of Yeasts, Approved Standard-Third. Edition, Clinical Laboratory Standards Institute, Wayne, Pa., 2008).
as §1, §2

[2] = tested on: C. albicans (ATCC strain 90028); experiment: Antifungal microdilution broth assay (PrestoBlue), C. albicans; assay type: cell-based, Candida albicans; conditions: Candida albicans, ATCC90028, across C. albicans, C. glabrata, and C. tropicalis; read-out: IC50 values against Candida species
Procedure, shortened: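 Inoculum of 1.5×10^3 cells/mL in RPMI-MOPS (0.165 M MOPS, pH 7.0), exposed to aurones for 24 h at 35 °C. Growth read by PrestoBlue (10% final) fluorescence at ex 560/em 590 nm.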

[3] = tested on: rat skeletal muscle cell line, L6; experiment: cells; assay type: cell-based; conditions: rat, 71.5 h

With `Cc1ccc(S(=O)(=O)C=CC#N)cc1` [Bay 11-7082, 3-(4-methylphenylsulfonyl)-2-propenenitrile, reference compound] the “cytoplasmic-to-nuclear translocation of p65” value (p65 (NF-κB)) was “blocked p65 translocation”.
`O=C1/C(=C/c2ccccn2)Oc2ccccc21` [Aurone 9051] was tested, and the MIC (C. gattii strains; read-out: MIC, C. gattii strain R265) was 25 µg/mL, the MIC (C. gattii strains; read-out: MIC, C. gattii strain R272) was 25 µg/mL and the MIC ([1]; 10^3 cells, read-out: MIC, Cn) was 25 µg/mL. It also gave an MIC ([1]; 10^4 cells, read-out: MIC, Cn) of 50 µg/mL, an MIC ([1]; 10^5 cells, read-out: MIC, Cn) of 100 µg/mL and an MIC ([1]; C. neoformans 24067 (lab), serotype D, RPMI + MOPS, inoculum 2 × 10^3 CFU/ml) of 112 µM. It also gave an MIC ([1]; C. neoformans B18 (clinical), serotype A, RPMI + MOPS, inoculum 2 × 10^3 CFU/ml) of 112 µM, an MIC ([1]; C. neoformans B45 (clinical), serotype A, RPMI + MOPS, inoculum 2 × 10^3 CFU/ml) of 112 µM and an MIC ([1]; C. neoformans B58 (clinical), serotype A, RPMI + MOPS, inoculum 2 × 10^3 CFU/ml, read-out: MIC) of 56 µM. For the same molecule, the MIC ([1]; C. neoformans B3501 (lab), serotype D, RPMI + MOPS, inoculum 2 × 10^3 CFU/ml) was 112 µM, the MIC ([1]; C. neoformans H99S, serotype A, Asparagine media, inoculum 2 × 10^3 CFU/ml) was 112 µM and the MIC ([1]; C. neoformans H99S, serotype A, Minimal media, inoculum 2 × 10^3 CFU/ml) was greater than 4480 µM. For the same molecule, the MIC ([1]; C. neoformans H99S, serotype A, RPMI + MOPS, inoculum 2 × 10^3 CFU/ml) was 112 µM, the MIC ([1]; C. neoformans H99S, serotype A, RPMI + MOPS, inoculum 2 × 10^4 CFU/ml) was 224 µM and the MIC ([1]; C. neoformans H99S, serotype A, RPMI + MOPS, inoculum 2 × 10^5 CFU/ml) was 448 µM. For the same molecule, the MIC ([1]; C. neoformans H99S, serotype A, YPD media, inoculum 2 × 10^3 CFU/ml) was greater than 896 µM, the MIC ([1]; C. neoformans JEC21 (lab), serotype D, RPMI + MOPS, inoculum 2 × 10^3 CFU/ml) was 112 µM and the MIC ([1]; in RPMI+MOPS, read-out: MIC, Cn) was 12.5 µg/mL. For the same molecule, the MIC ([1]; in YPD, read-out: MIC, Cn) was greater than 200 µg/mL, the MIC ([1]; in asparagine media, read-out: MIC, Cn) was 25 µg/mL and the MIC ([1]; running text b175, read-out: MIC against Cryptococcus neoformans) was 110 µM. The IC50 [2] was 10 to 18 µM and the “toxicity to L6 rat fibroblasts” value [3] was greater than 100 µM.
